Test results reported in PubChem BioAssay (NCI).
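Five concentrations, 48 hours, 96-well plates. GI50 marks 50% less growth. TGI denotes the concentration required for complete inhibition of growth.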

What was measured:
Experiment in all cases: NCI anticancer screen, dose series, 48 h
[1] = system: UACC-62 melanoma
[2] = system: NCI-H522 lung
[3] = system: SK-MEL-28 melanoma
[4] = system: SNB-19 CNS
[5] = system: SK-MEL-2 melanoma
[6] = system: NCI-H23 lung
[7] = system: SF-295 CNS
[8] = system: COLO 205 colon
[9] = system: SF-268 CNS
[10] = system: HT29 colon
[11] = system: SW-620 colon
[12] = system: UO-31 renal
[13] = system: MDA-MB-435
[14] = system: T-47D breast
[15] = system: SK-MEL-5 melanoma
[16] = system: IGROV1 ovarian
[17] = system: HCT-116 colon
[18] = system: DU-145 prostate
[19] = system: KM12 colon
[20] = system: HOP-62 NSCLC
[21] = system: SN12C renal
[22] = system: BT-549 breast
[23] = system: NCI/ADR-RES ovarian
[24] = system: MDA-MB-231 breast
[25] = system: EKVX NSCLC
[26] = system: OVCAR-5 ovarian
[27] = system: CCRF-CEM leukemia
[28] = system: SF-539 CNS
[29] = system: OVCAR-3 ovarian
[30] = system: ACHN renal
[31] = system: M14 melanoma
[32] = system: TK-10 renal
[33] = system: A549 NSCLC
[34] = system: OVCAR-4 ovarian
[35] = system: HCT-15 colon
[36] = system: SNB-75 CNS
[37] = system: 786-0 renal
[38] = system: OVCAR-8 ovarian
[39] = system: HS 578T breast
[40] = system: U251 CNS
[41] = system: MALME-3M melanoma
[42] = system: HCC-2998 colon
[43] = system: LOX IMVI melanoma
[44] = system: NCI-H460 lung
[45] = system: RPMI-8226 leukemia
[46] = system: UACC-257 melanoma
[47] = system: SK-OV-3 ovarian
[48] = system: CAKI-1 renal
[49] = system: A498 renal
[50] = system: RXF 393 renal
[51] = system: PC-3 prostate
[52] = system: NCI-H226 lung

## Nc1ccc(C(=O)NN2C(=O)[C@H](Cl)C2c2ccc(Cl)cc2)cc1 (stereo partly specified)
[1]
  TGI: 3.69 µM
[2]
  TGI: > 100 µM
[3]
  TGI: 1.8 µM
[4]
  TGI: 3.69 µM
[5]
  TGI: 4.37 µM
[6]
  TGI: 2.34 µM
[7]
  TGI: 9.31 µM
[8]
  TGI: 4.14 µM
[9]
  TGI: 1.92 µM
[10]
  TGI: 0.61 µM
[11]
  TGI: 4.96 µM
[12]
  TGI: 4.35 µM
[13]
  TGI: 4.16 µM
[14]
  TGI: 3.88 µM
[15]
  TGI: 4.27 µM
[16]
  TGI: 4.54 µM
[17]
  TGI: 0.476 µM
[18]
  TGI: 4.06 µM
[19]
  TGI: 2.99 µM
[20]
  TGI: 3.12 µM
[21]
  TGI: 2.83 µM
[22]
  GI50: 1.95 µM
  TGI: 4.9 µM
[23]
  TGI: 3.83 µM
[24]
  TGI: 3.55 µM
[25]
  TGI: 12.8 µM
[26]
  TGI: 8.23 µM
[27]
  GI50: 0.31 µM
  TGI: 1.41 µM
[28]
  TGI: 3.6 µM
[29]
  TGI: 2.55 µM
[30]
  TGI: 2.48 µM
[31]
  TGI: 3.11 µM
[32]
  TGI: 2.57 µM
[33]
  TGI: 8.49 µM
[34]
  TGI: > 100 µM
[35]
  TGI: 2.79 µM
[36]
  TGI: 0.797 µM
[37]
  TGI: 2.6 µM
[38]
  TGI: 3.68 µM
[39]
  TGI: 4.02 µM
[40]
  TGI: 2.26 µM
[41]
  TGI: 4.13 µM
[42]
  TGI: 3.01 µM
[43]
  GI50: 0.113 µM
  TGI: 0.233 µM
[44]
  TGI: > 100 µM
[45]
  TGI: 5.32 µM
[46]
  TGI: 3.63 µM
[47]
  TGI: 4.27 µM
[48]
  TGI: 2.94 µM
[49]
  GI50: 1.62 µM
  TGI: 3.21 µM
[50]
  TGI: > 100 µM
[51]
  TGI: 3.2 µM
[52]
  TGI: 2.65 µM
